# According to PMC3570965 (Science translational medicine, 2012):
# Like-named read-outs stand apart in the source and are kept apart here.
# How the values were obtained:
# [1] = cited from earlier work
# [2] = Pharmacokinetic analyses in NOD/SCID mice; assay type: in vivo
# ccRCC tumorgraft lines = experiment: Drug trials in subcutaneous ccRCC tumorgraft lines; assay type: in vivo, NOD/SCID mice; details: 4 ccRCC tumorgraft lines; dovitinib 30 mg/kg by gavage
# [3] = system: papillary RCC tumorgraft line (TG121); experiment: Drug trial in papillary RCC tumorgraft line TG121; assay type: in vivo, NOD/SCID mice; details: dovitinib 30 mg/kg by gavage
# [4] = system: TG144 tumorgraft-bearing mice; experiment: Serum calcium; assay type: in vivo, NOD/SCID mice; details: TG144, end of trial
# ccRCC = details: patients with ccRCC, randomized phase II trial; cited from earlier work
# [5] = system: NSCLC cell line-derived xenograft; experiment: NSCLC; assay type: in vivo, mice; details: same erlotinib regimen (12.5 mg/kg by gavage every 12 h)
structure (smiles),measurement,setting,value
CO[C@H]1C[C@@H]2CC[C@@H](C)[C@@](O)(O2)C(=O)C(=O)N2CCCC[C@H]2C(=O)O[C@H]([C@H](C)C[C@@H]2CC[C@@H](OCCO)[C@H](OC)C2)CC(=O)[C@H](C)/C=C(\C)[C@@H](O)[C@@H](OC)C(=O)[C@H](C)C[C@H](C)/C=C/C=C/C=C/1C [Everolimus],Cmin,"[1]; human, 10 mg PO qd, analyte Everolimus, mean ± SD, ref Awada et al., 2008",13.2 ± 7.2 ng/mL
CCNCCNC(=O)c1c(C)[nH]c(/C=C2\C(=O)Nc3ccc(F)cc32)c1C [desethyl sunitinib],metabolite as share of total circulating drug,"[2]; NOD/SCID mice, day 1, after sunitinib",38%
same,metabolite as share of total circulating drug,"[1]; humans, day 1, after sunitinib, ref Table 6",13%
CN1CCN(c2ccc3nc(-c4c(N)c5c(F)cccc5[nH]c4=O)[nH]c3c2)CC1 [dovitinib],peak and overall exposures compared with humans,"[2]; dovitinib 30 mg/kg daily by gavage, mice",within the range reported in humans
same,Terminal t1/2,"[1]; human, 500 mg PO qd, PK data at (D15), analyte Dovitinib, ref Kim, et al 2011",21 h
same,effect on ccRCC tumorgraft growth,ccRCC tumorgraft lines,profoundly suppressed
same,activity in papillary RCC tumorgraft line,[3],very active
same,effect on paraneoplastic hypercalcemia (serum calcium),[4],inhibited the development of paraneoplastic hypercalcemia
C#Cc1cccc(Nc2ncnc3cc(OCCOC)c(OCCOC)cc23)c1 [erlotinib],peak and overall exposures compared with humans,"[2]; erlotinib 12.5 mg/kg by gavage every 12 h, mice",higher
same,half-life,[1]; humans,24 h
same,outcomes in combination with bevacizumab vs bevacizumab alone,ccRCC,failed to show improved outcomes
same,effect on NSCLC cell line-derived xenograft growth,[5],profound effect
CO[C@H]1C[C@@H]2CC[C@@H](C)[C@@](O)(O2)C(=O)C(=O)N2CCCC[C@H]2C(=O)O[C@H]([C@H](C)C[C@@H]2CC[C@@H](O)[C@H](OC)C2)CC(=O)[C@H](C)/C=C(\C)[C@@H](O)[C@@H](OC)C(=O)[C@H](C)C[C@H](C)/C=C/C=C/C=C/1C [sirolimus],"peak and overall exposures, fold higher than in humans","[2]; sirolimus 0.5 mg/kg intraperitoneally every 48 h, NOD/SCID mice vs humans",2-3 fold
same,share of circulating drug after temsirolimus administration,"[1]; humans, after temsirolimus administration",75%
same,therapeutic range (trough levels) in humans,[1]; humans,5 to 15 ng/mL
CCN(CC)CCNC(=O)c1c(C)[nH]c(/C=C2\C(=O)Nc3ccc(F)cc32)c1C [sunitinib],peak exposures compared with humans,"[2]; sunitinib 10 mg/kg by gavage every 12 h, mice",slightly higher than in humans
same,half-life compared with humans,"[2]; sunitinib, mice vs humans",much shorter in mice
